Where two headings read alike, the source gives them in different places.
Columns and labels:
S. mansoni = S. mansoni infected animals; cited from earlier work
Source text: Taken together we have elucidated the therapeutic capacity of somatostatin in reducing hepatic fibrosis. This report in fact confirms a previous report by Mansy, where using a somatostatin synthetic analog octreotide in S. mansoni infected animals, a reduction in hepatic fibrosis was noted. Since octreotide is limited in binding to somatostatin receptors, our results with natural somatostatin that binds to all 5 somatostatin receptors equally well assures us of the anti fibrotic capacities of this neuropeptide hormone, and points to its potential use in human conditions.

[1] = dogs, animal studies; cited from earlier work
Experimental: Somatostatin has a very short half-life of 1–3 minutes in man. […] To determine the pharmacokinetic profile in outbred Swiss mice, 25 μg of somatostatin was administered per mouse via th ...

[2] = Circulating somatostatin levels in plasma at sacrifice, one week after therapy (RIA); format: in vivo, Swiss mice; conditions: for level at 168 h: Swiss, mouse, plasma
Experimental: (§1) Groups of Swiss mice were infected with 100 S. mansoni cercariae each as mentioned above. Age matched mice were maintained as uninfected control animals. Groups of 10 mice composed Group 1 that were maintained till 10 weeks following infection, other 10 mice composed Group 2 that were maintained till 14 weeks of infection.
(§2) At such times animals of Groups 1 and 2 were treated with somatostatin (Somatostatine-ucb®), that was kindly gifted by UCB Pharma, Brussels. Somatostatin was administered in two regimens – a one-day treatment or a two-day treatment. One day treatment consisted of 3 doses of 30 μg somatostatin each, two day treatment was the double of this dose, that is 6 doses of 30 μg somatostatin to each animal. Somatostatin was administered intravenously via the caudal vein in the tail and intraperitoneally at regular intervals during the day. One week after the last somatostatin administration, mice were killed, the weight of the animal, liver and spleen were noted, plasma was extracted and stored as mentioned above, and the liver frozen immediately in liquid nitrogen and then at -80°C. The overall planning is depicted in Table 1. Untreated animals of the acute and chronic stage were also sacrificed at the respective times together with their treated counterparts. Research protocols involving rodents received ethical clearance by the University of Antwerp ethical committee.
(§3) The measurement of somatostatin concentrations in the Swiss mice plasma was carried out in the laboratory of Gastro-intestinal Hormones, at Gasthuisberg, K.U. Leuven, by means of a radio-immuno assay (RIA). The RIA was performed by incubating the samples with 1.7 pM 3-[^125I] iodotyrosyl^11 somatostatin-14 (specific activity 2000 Ci/mmol, Amersham Pharmacia Biotech, Buckinghamshire, UK) and a rabbit antibody against human SOM [1-14] in a 50 mM sodium phosphate buffer (pH 7.4, 0.25% EDTA, 0.5% charcoal-BSA, 500 U/ml Trasylol) for at least two days at 4°C. At the end of the incubation period the SOM bound to the antibody was separated from the free SOM by adding 500 μl dextran-charcoal followed by centrifugation for 15 min at 3000 rpm. Both fractions were counted in a gamma counter and the results were read from a standard curve (0–250 pg/ml) included in the RIA. The minimal detectable dose was 2.5 pg/ml.

[3] = rats; cited from earlier work
[4] = Toxicity of somatostatin administration in the study mice; format: in vivo; conditions: Swiss mice, 90 μg/24 hours, mice about 40 g
Experimental: as §2
The favorable metabolic profile of somatostatin is further supported by the fact that this compound has a very short half-life, and thus any undesirable effects may be rapidly reversed. In our experiment we have used 90 μg/24 hours in the Swiss mice that weighs about 40 g. […]

[5] = Liver, spleen and total body weight after somatostatin treatment; format: in vivo, Swiss mice
Experimental: as §1, §2
All animals of Groups I and II were controlled for liver, spleen and total body weight, before sacrifice. The adult worms were recovered from the hepatic portal system and the liver by perfusion with citrate saline (0.85% sodium chloride; 1.5% sodium citrate). The livers were cut out and snap frozen in liquid nitrogen. For cyosectioning, liver fragments were embedded in Tissue-Tek OCT compound, 4 μm thick transverse sections were cut on a cryostat, mounted on slides coated with 0.1% ploy-L-lysine and stored at -20°C until use. To study parasite egg count, hepatocyte status, granuloma size and cellularity, series of sections were stained with Haematoxylin-eosin stain.

[6] = Pharmacokinetic profile of somatostatin in outbred Swiss mice (plasma, RIA); format: in vivo; conditions: male Swiss mice; for level at 10 min: Swiss (outbred), 25 ug per mouse, 10 minutes post injection, plasma
Experimental: Separate groups of male Swiss mice were injected with 25 μg of somatostatin (somatostatin-ucb®, UCB Pharma, Brussels) intraperitoneally (in the abdomen) or intravenously (in the caudal vein in the tail). At defined moments after injection (10, 20, 40, 60 minutes) the animals were anaesthetized with Nembutal® (60 mg/kg). The thoracic cavity was cut open and blood collected from the right ventricle of the heart into chilled syringes containing EDTA (1 mg/ml) and Aprotinin (500 KIU/ml blood). The collected blood was centrifuged at 3000 rpm for 15 minutes at 0°C. The plasma was immediately frozen at -80°C freezer. Untreated naïve mice were also bled to ascertain background levels of somatostatin.
as §3
Somatostatin has a very short half-life of 1–3 minutes in man. […] To determine the pharmacokinetic profile in outbred Swiss mice, 25 μg of somatostatin was administered per mouse via the intraperitoneal or intravenous route. To assess the break down in these mice, plasma was collected at regular time intervals and circulating somatostatin levels assayed (Figure 2). At 10 minutes post injection somatostatin levels fall to 30233 pg/ml (IP) and 17413 pg/ml (IV).

[7] = studies in mice; cited from earlier work
Experimental: The favorable metabolic profile of somatostatin is further supported by the fact that this compound has a very short half-life, and thus any undesirable effects may be rapidly reversed. In our experiment we have used 90 μg/24 hours in the Swiss mice that weighs about 40 g. In humans the therapeutic dose is 3.5 μg/kg/hour or 6 mg/24 h for a 75 kg person. A comparison of these values tells ...

[8] = cited from earlier work
[9] = acute (wk 10) infected mice, 1 day SOM treatment, one week post treatment, RIA, untreated 297.3 ± 37.24
[10] = acute (wk 10) infected mice, 2 day SOM treatment, one week post treatment, RIA, untreated 297.3 ± 37.24, p = 0.28
[11] = chronic (wk 14) infected mice, 1 day SOM treatment, one week post treatment, RIA, untreated 206.1 ± 13.30
[12] = chronic (wk 14) infected mice, 2 day SOM treatment, one week post treatment, RIA, untreated 206.1 ± 13.30, p = 0.06 (BL)
[13] = uninfected mice (17 wks.), 2 day SOM treatment, Group 1, RIA
[14] = uninfected mice (21 wks.), 2 day SOM treatment, Group 2, RIA

Molecule: octreotide
- hepatic fibrosis (S. mansoni): reduction

Molecule: C[C@H](N)C(=O)NCC(=O)N[C@H]1CSSC[C@@H](C(=O)O)NC(=O)[C@H](CO)NC(=O)[C@H]([C@@H](C)O)NC(=O)[C@H](Cc2ccccc2)NC(=O)[C@H]([C@@H](C)O)NC(=O)[C@H](CCCCN)NC(=O)[C@H](Cc2c[nH]c3ccccc23)NC(=O)[C@H](Cc2ccccc2)NC(=O)[C@H](Cc2ccccc2)NC(=O)[C@H](CC(N)=O)NC(=O)[C@H](CCCCN)NC1=O [somatostatin]
- plasma profile / half-life compared with man [1]: same profile
- level at 168 h [2, 9]: 0.24 ± 0.0213 ng/mL
- level at 168 h [2, 10]: 0.234 ± 0.0236 ng/mL
- level at 168 h [2, 11]: 0.226 ± 0.00541 ng/mL
- level at 168 h [2, 12]: 0.248 ± 0.0131 ng/mL
- level at 168 h [2, 13]: 0.137 ± 0.0117 ng/mL
- level at 168 h [2, 14]: 0.152 ± 0.0415 ng/mL
- level at 168 h ([2]; uninfected mice, 1 day SOM treatment, Group 2, RIA): 0.132 ± 0.0193 ng/mL
- somatostatin level in plasma [2, 9]: 240.3 pg/mL
- somatostatin level in plasma [2, 10]: 234.2 pg/mL
- somatostatin level in plasma [2, 11]: 226.3 pg/mL
- somatostatin level in plasma [2, 12]: 247.9 pg/mL
- somatostatin level in plasma [2, 13]: 136.9 pg/mL
- somatostatin level in plasma [2, 14]: 151.6 pg/mL
- time stable in whole blood [3]: up to 30 minutes
- toxicity of somatostatin administration [4]: little toxicity
- change in liver weight ([5]; acute and chronic infected animals after 2 days of somatostatin treatment vs untreated, p = 0.19, 0.90): no significant change
- change in spleen weight ([5]; acute and chronic infected animals after 2 days somatostatin treatment vs untreated, p = 0.28, 0.73): no significant changes
- change in total body weight ([5]; acute or chronic infected animals after somatostatin treatment): no significant changes
- level at 10 min ([6]; ip, 25 μg somatostatin per mouse intraperitoneally, read-out: circulating somatostatin level in plasma at 10 minutes post injection (IP)): 30.2 ng/mL
- level at 10 min ([6]; iv, 25 μg somatostatin per mouse intravenously (caudal vein), read-out: circulating somatostatin level in plasma at 10 minutes post injection (IV)): 17.4 ng/mL
- circulating somatostatin level after one hour of injection ([6]; 25 μg per mouse, IP or IV, one hour after injection): reaches baseline control levels
- LD50 [7]: ~10,000 times the acute therapeutic dose used in humans
- time to reach plasma plateau ([8]; healthy volunteers, intravenous infusion 250 μg/hour or 6 mg/24 hours): ≤ 15 min
- plasma plateau level ([8]; healthy volunteers, intravenous infusion of therapeutic dose (250 μg/hour or 6 mg/24 hours)): 300 to 3000 pg/mL
- half-life ([8]; in man): 1 to 3 min
